In ChEMBL document CHEMBL5614455, “Novel Azepino[4,5-b]indolone as cGAS Inhibitors for Treating Immune-Mediated Diseases” (ACS Med Chem Lett, 2024):
pIC50: −log10 of the molar value.

Target: Cyclic GMP-AMP synthase (Homo sapiens, UniProt Q8N884)
Experiment: Inhibition of full length his-tagged human recombinant cGAS extracted from Escherichia coli BL21 (DE3) incubated for 3 hrs by rapidfire 365 mass spectrometry analysis

Sequence of Cyclic GMP-AMP synthase (Q8N884 whole entry): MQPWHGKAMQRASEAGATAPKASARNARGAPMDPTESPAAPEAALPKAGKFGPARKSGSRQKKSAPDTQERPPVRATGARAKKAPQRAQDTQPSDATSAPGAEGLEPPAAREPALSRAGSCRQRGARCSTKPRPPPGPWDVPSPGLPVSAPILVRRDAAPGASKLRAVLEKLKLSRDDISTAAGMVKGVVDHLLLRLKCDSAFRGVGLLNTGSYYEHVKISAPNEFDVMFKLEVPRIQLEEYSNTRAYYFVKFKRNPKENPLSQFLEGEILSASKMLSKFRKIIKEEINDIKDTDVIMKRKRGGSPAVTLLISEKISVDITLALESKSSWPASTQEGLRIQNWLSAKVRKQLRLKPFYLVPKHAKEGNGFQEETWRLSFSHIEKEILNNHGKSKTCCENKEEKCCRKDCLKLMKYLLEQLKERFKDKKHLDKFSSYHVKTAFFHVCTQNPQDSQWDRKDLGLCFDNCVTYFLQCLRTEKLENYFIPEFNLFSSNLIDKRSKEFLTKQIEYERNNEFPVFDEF

SMILES | pIC50
COCC[C@@H]1CNC(=O)[C@@H](C)c2c1[nH]c1c(Cl)c(Cl)cc(NCCO)c21 | 8.10
CC(F)(F)C[C@@H]1CNC(=O)Cc2c1[nH]c1c(Cl)c(Cl)cc(CC#N)c21 | 8.10
C[C@@H]1C(=O)NCCc2[nH]c3c(Cl)c(Cl)cc(OCCCO)c3c21 | 8.15
Cn1ncc(-c2cc(Cl)c(Cl)c3[nH]c4c(c23)CC(=O)NCC4CC(=O)O)n1 (stereo unspecified) | 8.30
COCCCOc1cc(Cl)c(Cl)c2[nH]c3c(c12)[C@H](C)C(=O)NCC3 | 8.10
C[C@@H]1C(=O)NCCc2[nH]c3c(Cl)c(Cl)cc(OCC#N)c3c21 | 8.70
